This passage reports inhibition results from paper PMC9287138, “Proteasome activator 28γ (PA28γ) allosterically activates trypsin-like proteolysis by binding to the α-ring of the 20S proteasome” (The Journal of Biological Chemistry, 2022).

The target in this test is T1, human 20S proteasome (H20S) (Homo sapiens, UniProt P28074+Q99436).
T1 construct: gene PSMB5; with Proteasome subunit beta type-6 (caspase-like site); Proteasome subunit alpha type-6; Proteasome subunit alpha type-2; Proteasome subunit alpha type-4; Proteasome subunit alpha type-7; Proteasome subunit alpha type-5; Proteasome subunit alpha type-1; Proteasome subunit alpha type-3; Proteasome subunit beta type-3; Proteasome subunit beta type-2; Proteasome subunit beta type-1; Proteasome subunit beta type-4
Put plainly: inhibition of boc-RLR-AMC hydrolysis. Format: biochemical.

Turning to `CC(=O)N[C@@H](CC(C)C)C(=O)N[C@@H](CC(C)C)C(=O)N[C@H](C=O)CCCNC(=N)N` [leupeptin], the inhibition at 40 µM lay within 94 to 100%.
